Measured values published in patent publication US12145915B1 (priority 2023, dated 2024).
≈ marks a conversion by molar mass, not a printed value.

Key:
[1] = tested on: Mycobacterium tuberculosis H37Rv (ATCC: 25177); assay: Resazurin Microplate Assay (REMA), MIC against H37Rv strain; format: cell-based; details: 192 h, read-out: Anti-tubercular activity against Mycobacterium tuberculosis (μg/mL) H37Rv (MIC)

| SMILES | melting point [°C] | MIC [1] [µg/mL] |
| --- | --- | --- |
| Cc1nc(-c2ccc(OCC(C)C)c(C#N)c2)sc1C(=O)N/N=C/c1ccc([N+](=O)[O-])o1 | 228 to 230 |  |
| Cc1nc(-c2ccc(OCC(C)C)c(C#N)c2)sc1C(=O)N/N=C/c1ccc(F)c(Oc2ccccc2)c1 [KNV-TZL1, (E)-2-(3-Cyano-4-isobutoxyphenyl)-N-(4-fluoro-3-phenoxybenzylidene)-4-methylthiazole-5-carbohydrazide] | 138 to 140 | 8 (≈ 15.1 µM) |
| COc1cc(/C=N/NC(=O)c2sc(-c3ccc(OCC(C)C)c(C#N)c3)nc2C)ccc1O [KNV-TZL2, (E)-2-(3-Cyano-4-isobutoxyphenyl)-N-(4-hydroxy-3-methoxybenzylidene)-4-methylthiazole-5-carbohydrazide] | 230 to 232 | 16 (≈ 34.4 µM) |
